Measurements from patent US8974836B2, “Angiogenesis regulating composition and method for regulating angiogenesis” (Air Water, Inc., priority 2009, dated 2015).
Like-named read-outs stand apart in the source and are kept apart here.

How the values were obtained:
methemoglobinemia = settings: reported for Rodentia; cited from earlier work
[1] = test system: model mice of oxygen-induced retinal angiogenesis; experiment: Exemplary experiment 4: nitrite versus general-purpose nitrogen monoxide donor drugs, retinal avascular area; format: in vivo, C57BL/6J mouse
Experimental: Preparation of the model mice of oxygen-induced retinal angiogenesis, fluorescent imaging of retinal vessels and a retinal flat-mount were operated according to exemplary experiment 1.
(§1) Areal ratio of retinal avascular area was calculated pursuant to exemplary experiment 1.

[2] = test system: model mice of oxygen-induced retinal angiogenesis; experiment: Exemplary experiment 2: suppression of pathologic neovascularization (pathological vessels extending into the vitreum); format: in vivo, C57BL/6J mouse; settings: for number of pathological vessels breaking the inner limiting membrane and extending into the vitreum: 15 or 75 μmol/kg once per day P7-P16, P17, FIG. 2, versus physiological saline
Experimental: The effect of sodium nitrate and sodium nitrite for suppression of pathologic neovascularization by oxygen-induced retinal vascularized model was evaluated.
(§2) Sodium nitrate or sodium nitrite as a test compound was dissolved in physiological saline for injection to prepare a test compound injection of […].
C57BL/6J mouse (SLC) was used as an experimental animal. The model mice of oxygen-induced retinal angiogenesis were prepared according to exemplary experiment 1. Sodium nitrate or sodium nitrite was injected to a cervical region hypodermically once per day in amount of 15 or 75 μmol/kg for ten days from the 7th day (P7) to the 16th day (P16) after birth. In addition, physiological saline as controls was similarly injected hypodermically instead of test compound.
On the 17th day after birth (P17), the mice were euthanised by overdose of pentobarbital, and eyes were removed together with optic nerve. The eyes were washed in physiological saline, excessive tissues were excised, and the eyes were thus fixed in a 4% paraformaldehyde phosphate buffer for 12 hours. After the fixation, the eyes were dehydrated by immersing in a graded ethanol series of 70-100% sequentially and were embedded in paraffin.

[3] = test system: model mice of oxygen-induced retinal angiogenesis; experiment: Exemplary experiment 3: regulation of retinal angiogenesis, administration from start of angiogenesis (P12); format: in vivo, C57BL/6J mouse; settings: for value of areal ratio of retinal avascular area / value of retinal avascular area: 15 μmol/kg hypodermically once per day P12-P16, average; for reduction of retinal avascular area in comparison with a control group: 15 μmol/kg, administered from the start of retinal angiogenesis (P12)
Experimental: For the model mice of oxygen-induced retinal angiogenesis, retinal angiogenesis is induced by providing 75% oxygen followed by breeding in room air during P12-P17.
Sodium nitrate or sodium nitrite as a test compound was dissolved in physiological saline for injection to prepare a test compound injection of […].
Preparation of the model mice of oxygen-induced retinal angiogenesis, fluorescent imaging of retinal vessels and a retinal flat-mount were operated according to exemplary experiment 1. However sodium nitrate or sodium nitrite was injected to a cervical region hypodermically once per day in amount of 15 μmol/kg for […] from the 12th day (P12) to the 16th day (P16) after birth. In addition, physiological saline as controls was similarly injected hypodermically instead of test compound for the same period of time.
as §1

[4] = test system: model mice of oxygen-induced retinal angiogenesis; experiment: Exemplary experiment 5: nitrite versus anti-VEGF antibody, retinal avascular area; format: in vivo, C57BL/6J mouse; settings: 15 μmol/kg hypodermically once per day P7-P16, average
Experimental: Using the model mice of oxygen-induced retinal angiogenesis, a comparison was made about retinopathy treatment effect between nitrite and an anti-VEGF antibody used for treatment of progressive colorectal cancer, age-related macular degeneration and so on.
Sodium nitrite as a test compound was dissolved in physiological saline for injection to prepare a test compound injection of 3 μmol/ml. For a comparative example, a murine monoclonal anti-VEGF antibody (produced by SANTACRUZ BIOTECHNOLOGY, INC.) was condensed to prepare 500 μg IgG/ml of an injection for the comparative example.
Preparation of the model mice of oxygen-induced retinal angiogenesis, fluorescent imaging of retinal vessels and a retinal flat-mount were operated according to exemplary experiment 1. Sodium nitrite was injected to a cervical region hypodermically once per day in amount of 15 μmol/kg for ten days from the 7th day (P7) to the 16th day (P16) after birth. The anti-VEGF antibody was injected through the corneal limbus to the vitreous body with a microsyringe equipped with a 33G hypodermic needle, by cutting mice eyelids open when oxygenation ended (on the 12th day alter birth).
as §1

[5] = test system: model mice of oxygen-induced retinal angiogenesis; settings: for retinal avascular area reduced as compared to control group: 15 or 75 μmol/kg once per day P7-P16, versus physiological saline
Description: C57BL/6J mouse (SLC) was used as an experimental animal. […] Neonatal mice were bred from the 7th day (P7) to the 12th day (P12) after birth together with a parent mouse in a cage of high levels of oxygen (75±1% of O2) controlled by oxygen control equipment (PRO-OX110, produced by Reming Bioinstruments Co) to provide high levels of oxygen (75±1% of O2). Retinal angiogenesis was induced by breeding under normoxic condition (21% of O2) from the 12th day to the 17th day after birth. […] In addition, physiological saline as controls was similarly injected hypodermically instead of test compound.
Fifty micro grams per animal of fluorescein-conjugated dextran (FITC-dextran; M.W. 2×10^6, produced by SIGMA) were systemically perfused from the left ventricle under deep anesthesia with pentobarbital on the 17th day after birth (P17). After the perfusion, eyes of mouse were removed and fixed in a 4% paraformaldehyde phosphate buffer for 4-12 hours. After the fixation, the cornea and the lens were excised from eye, and the residual hyaloid artery was removed by micro tweezers. The retina was separated under a microscope, and subsequently set flat and embedded in [sequence] (produced by Vector Laboratories Inc.) for preparation of a retinal flat-mount.
Flat mounted retinas were imaged with a high sensitivity CCD camera under a fluorescent inverted microscope (Olympus IX71). A value of total retinal area and a value of retinal avascular area in obtained image were converted to numeric data by Photoshop CS4 extended (Adobe), and a value of areal ratio of retinal avascular area in comparison with the value of total retinal area was calculated by the following equation: value of areal ratio of retinal avascular area=value of retinal avascular area (μm^2)/value of total retinal area (μm^2)×100

[6] = Exemplary experiment 6: plasma concentration of nitrate ions after administration; settings: P12, average
Experimental: as §2
C57BL/6J mouse (SLC) was used as an experimental animal. The model mice of oxygen-induced retinal angiogenesis were prepared according to exemplary experiment 1. […] Thereafter, isoflurane was used to anesthetize the mice, and 150 μl of blood was collected from the abdominal aorta over time. Plasma concentration of nitrate ions was measured by ion exchange chromatography using a normal phase column under the following conditions:
Conditions for Ion Exchange Chromatography • Separation column: Asahipak NH2P-50 4E (4.6 mm×250 mm) • Guard column: Inertsil NH2 (5 μm) (4 mm×10 mm) • Mobile phase: 10 mM of sodium dihydrogenphosphate, 150 mM of sodium perchlorate, 5.0 • Flow rate: 0.7 ml/min • Detection wavelength: 210 nm

[7] = in vivo; cited from earlier work
[8] = 15 μmol/kg hypodermically once per day P7-P16, average
[9] = 15 μmol/kg hypodermically once per day P7-P16, evaluated P17, average
[10] = 75 μmol/kg hypodermically once per day P7-P16, evaluated P17, average
[11] = 20 μmol/kg hypodermically once per day P7-P16, average

SMILES: O=NO [sodium nitrite]
- maximal no-effect dose for methemoglobinemia (methemoglobinemia): 84 mg/kg/day
- value of areal ratio of retinal avascular area [1, 8]: 6.44%
- value of retinal avascular area [1, 8]: 417863.94 μm^2
- pathological vessels reduced as compared with a control ([2]; 75 μmol/kg once per day P7-P16, P17): approximately 30%
- number of pathological vessels breaking the inner limiting membrane and extending into the vitreum [2]: decreased
- value of areal ratio of retinal avascular area [3]: 9.3%
- value of retinal avascular area [3]: 621218.70 μm^2
- reduction of retinal avascular area in comparison with a control group [3]: approximately 40%
- value of areal ratio of retinal avascular area [4]: 9.3%
- value of retinal avascular area [4]: 621218.70 μm^2
- value of areal ratio of retinal avascular area ([4]; listed as nitrite): 9.3%
- value of areal ratio of retinal avascular area [5, 9]: 6.44%
- value of retinal avascular area [5, 9]: 417863.94 μm^2
- value of areal ratio of retinal avascular area [5, 10]: 10.01%
- value of retinal avascular area [5, 10]: 571705.28 μm^2
- retinal avascular area reduced as compared to control group [5]: 40-60%

SMILES: O=[N+]([O-])[O-].[Na+] [sodium nitrate]
- maximum plasma concentration of nitrate ions after single-dose administration ([6]; 15 μmol/kg subcutaneously in cervical region): 135.38 µmol/L
- maximum plasma concentration of nitrate ions after single-dose administration ([6]; 75 μmol/kg subcutaneously in cervical region): 194.9 µmol/L
- nitrate having entered systemic circulation secreted in saliva [7]: approximately 25%
- portion of nitrate in saliva reduced to nitrite by dental bacteria [7]: approximately 30%
- number of pathological vessels breaking the inner limiting membrane and extending into the vitreum [2]: decreased
- value of areal ratio of retinal avascular area [3]: 8.76%
- value of retinal avascular area [3]: 506451.72 μm^2
- reduction of retinal avascular area in comparison with a control group [3]: approximately 40%
- value of areal ratio of retinal avascular area [5, 10]: 12.7%
- value of retinal avascular area [5, 10]: 842271.02 μm^2
- retinal avascular area reduced as compared to control group [5]: approximately 20%

SMILES: O=[N+]([O-])OCC(CO[N+](=O)[O-])O[N+](=O)[O-] [NTG, nitroglycerin]
- value of areal ratio of retinal avascular area [1, 11]: 21.36%
- value of retinal avascular area [1, 11]: 1456421.33 μm^2
- retinal avascular area increased in comparison with a group administered with nitrite ([1]; SNP 2 μmol/kg, NTG 20 μmol/kg versus sodium nitrite 15 μmol/kg, P7-P16): approximately 3.3 times
- reduction of avascular area (typical symptom of retinopathy), in words ([1]; SNP 2 μmol/kg, NTG 20 μmol/kg, once per day P7-P16): Neither SNP nor NTG was observed to reduce
